System: PC3 human prostate cells stably expressing GFP-LC3
Assay: GFP-LC3 puncta quantification in PC3 cells
Type: cell-based
Conditions: PC3 GFP-LC3, control siRNAs, 1 μM mTOR inhibitor for 4 hr
Method: At 48 hr after RNAi transfection, the cells were treated with 1 μM of the catalytic mTOR inhibitors AZD8055 or INK128 for 4 hr and assessed for the presence of GFP-LC3 puncta. The average number of GFPLC3 puncta and SD for each siRNA and drug treatment are shown. SRC, c-Src; c-Src kinase, CSK.
To test the ability of compound 14 to block autophagy and cell survival, initial studies were performed in A549 lung cancer cells, which are highly sensitive to mTOR inhibition. […] Next, we genetically assessed the requirement for ULK1 versus other kinases inhibited by compound 14 to induce autophagy after pharmacological mTOR inhibition. A robust high-throughput microscopy method for quantifying GFP-LC3 puncta was established using a PC3 prostate-cancer cell line stably expressing a GFP-LC3 construct. Using this assay, we performed a focused RNAi analysis of the top 20 kinases identified in the DiscovRx screen as best binding to compound 14. […] Strikingly, of the 18 kinases tested, only one kinase siRNA, ULK1, nearly fully abolished the LC3 puncta induced by the mTOR inhibitors (FIG. 9D).

Row | Compound | induction in GFP-LC3 puncta formation
1 | COc1ccc(-c2ccc3c(N4CCOC[C@@H]4C)nc(N4CCOC[C@@H]4C)nc3n2)cc1CO [AZD8055, (5-(2,4-bis((S)-3-methylmorpholino)pyrido[2,3-d]pyrimidin-7-yl)-2-methoxyphenyl)methanol, reference compound] | 2 fold
2 | CC(C)n1nc(-c2ccc3oc(N)nc3c2)c2c(N)ncnc21 [INK128, 3-(2-amino-5-benzoxazolyl)-1-(1-methylethyl)-1H-pyrazolo[3,4-d]pyrimidin-4-amine] | 2 fold

System: A549 lung cancer cells
Assay: AnnexinV apoptosis analysis in A549 cells with mTOR inhibitor
Type: cell-based
Conditions: AZD8055 alone, 1 micromolar
Method: A549 cells (ATCC #CCL185) and MEFs were seeded at a concentration of 2.5×10^5 cells/mL (i.e., 750,000 cells per 6 cm dish), grown overnight (18 hrs) and treated as indicted in the figure legends. Unless otherwise indicated, “starvation” is EBSS and “control” is DMEM with full serum for indicated timepoints. Samples for western blot were washed once in 1× ice cold PBS and lysed in boiling SDS lysis buffer (10 mM Tris […], 100 mM NaCl, 1% SDS). After trituration, lysates were equilibrated for protein levels using the BCA method (Pierce) and resolved on 8 to 15% SDS-PAGE gels, depending on the size of the protein. PVDF membranes were probed with indicated antibodies overnight according to the manufacturers instructions.
For flow cytometry analysis, cells were collected at the appropriate time point, washed once in PBS, trypsinized and pelleted. For Annexin V staining, cells were washed in 1× Annexin V buffer and treated as described by the Annexin V staining protocol (BD Pharmingen, San Diego, Calif.). Briefly, cells were resuspended in Annexin V buffer to a concentration of one million per mL, 100,000 cells were then stained with 5 μL of phycoerythrin (PE)-conjugated Annexin V antibody (BD Pharmingen, San Diego, Calif.) and 5 μL of 7-amino-actinomycin D (7AAD) and then incubated at room temperature for 15 minutes. 400 μL of Annexin V buffer was then added to each sample with gentle mixing. Stained cells were analyzed using a FACScan flow cytometer (Becton Dickinson, San Jose, Calif.). Flow cytometry data was analyzed using FlowJo 8.6 software (Tree Star Inc., Ashland, Oreg.).
There has been great interest in the role of autophagy in the survival of tumor cells, particular tumor cells faced with metabolic stress from chemotherapies or targeted therapeutics. We next examined whether compound 14 would promote apoptosis in tumor cells similar to the MEFs, selectively under conditions in which autophagy is actively engaged. […] Given that mTOR activity is a dominant regulator of ULK1 activity, and we previously noted that treatment of cells with mTOR catalytic inhibitors was sufficient to induce ULK1 activity, we examined the effect of adding in the ULK1 inhibitor in the context of treatment with mTOR catalytic inhibitors. Using a cell line well-established to be sensitive to mTORC1 inhibition, A549 lung cancer cells, we treated with escalating doses of ULK1 inhibitor while keeping a constant cytostatic growth arrest-inducing 1 micromolar dose of the mTOR catalytic inhibitor AZD8055. We observed that 5 μM compound 14 in combination with AZD8055 triggered apoptosis in 22% of A549 cells compared to 9% of the 5 μM compound 14 alone or 6% of those cells treated with AZD8055 alone. […]

Row | Compound | apoptosis, % of A549 cells
3 | COc1ccc(-c2ccc3c(N4CCOC[C@@H]4C)nc(N4CCOC[C@@H]4C)nc3n2)cc1CO [AZD8055, (5-(2,4-bis((S)-3-methylmorpholino)pyrido[2,3-d]pyrimidin-7-yl)-2-methoxyphenyl)methanol, reference compound] | 6%

Target: ULK1 (Homo sapiens (Human), UniProt O75385)
Sequence (O75385 whole entry, species assumed): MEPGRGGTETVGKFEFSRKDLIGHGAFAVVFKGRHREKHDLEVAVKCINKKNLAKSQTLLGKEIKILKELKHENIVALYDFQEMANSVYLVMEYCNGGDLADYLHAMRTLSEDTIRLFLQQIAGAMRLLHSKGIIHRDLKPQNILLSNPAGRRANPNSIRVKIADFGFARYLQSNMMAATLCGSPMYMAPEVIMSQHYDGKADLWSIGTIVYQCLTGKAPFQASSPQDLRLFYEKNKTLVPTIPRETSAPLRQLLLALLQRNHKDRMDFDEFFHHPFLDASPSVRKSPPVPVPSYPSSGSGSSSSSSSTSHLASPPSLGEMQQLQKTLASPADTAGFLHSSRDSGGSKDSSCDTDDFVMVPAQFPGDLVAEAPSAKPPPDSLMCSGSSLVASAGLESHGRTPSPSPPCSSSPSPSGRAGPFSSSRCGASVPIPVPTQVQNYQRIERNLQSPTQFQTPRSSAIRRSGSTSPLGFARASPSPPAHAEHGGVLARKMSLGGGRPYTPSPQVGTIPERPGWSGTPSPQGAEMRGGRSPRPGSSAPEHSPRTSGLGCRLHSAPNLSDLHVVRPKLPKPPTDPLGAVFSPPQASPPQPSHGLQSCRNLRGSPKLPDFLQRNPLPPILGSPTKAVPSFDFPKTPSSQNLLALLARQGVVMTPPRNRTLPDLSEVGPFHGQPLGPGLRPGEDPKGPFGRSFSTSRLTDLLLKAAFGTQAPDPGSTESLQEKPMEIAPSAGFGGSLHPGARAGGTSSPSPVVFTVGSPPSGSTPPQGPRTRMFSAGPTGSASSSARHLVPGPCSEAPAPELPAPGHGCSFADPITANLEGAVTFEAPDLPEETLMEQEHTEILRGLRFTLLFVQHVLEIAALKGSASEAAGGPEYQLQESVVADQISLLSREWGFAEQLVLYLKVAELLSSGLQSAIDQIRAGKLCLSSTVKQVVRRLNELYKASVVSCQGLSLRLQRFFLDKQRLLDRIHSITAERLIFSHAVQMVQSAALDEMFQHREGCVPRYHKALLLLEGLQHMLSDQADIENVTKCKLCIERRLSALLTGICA
Assay: ULK1 inhibition assay (Table 1)
Type: biochemical
Conditions: * = tested as a mixture of regioisomers

Row | Compound | IC50
4 | O=C1CCc2cc(Nc3ncc(C(F)(F)F)c(Nc4cccc(OCc5ccccc5)c4)n3)ccc2N1 [compound 121, 6-((4-((3-(benzyloxy)phenyl)amino)-5-(trifluoromethyl)pyrimidin-2-yl)amino)-3,4-dihydroquinolin-2(1H)-one] | 200 to 2000 nM
5 | CNC(=O)c1cccc(Oc2nc(Nc3ccc4c(c3)CCC(=O)N4)ncc2C(F)(F)F)c1 [compound 122, N-methyl-3-((2-((2-oxo-1,2,3,4-tetrahydroquinolin-6-yl)amino)-5-(trifluoromethyl)pyrimidin-4-yl)oxy)benzamide] | 200 to 2000 nM
6 | Cc1ccc(Nc2nc(Nc3ccc4c(c3)CCC(=O)N4)ncc2C(F)(F)F)cc1C [compound 125, 6-((4-((3,4-dimethylphenyl)amino)-5-(trifluoromethyl)pyrimidin-2-yl)amino)-3,4-dihydroquinolin-2(1H)-one] | < 200 nM
7 | CNC(=O)c1cccc(Nc2nc(Nc3ccc4c(c3)CCC(=O)N4)ncc2C(F)(F)F)c1 [compound 128, N-methyl-3-((2-((2-oxo-1,2,3,4-tetrahydroquinolin-6-yl)amino)-5-(trifluoromethyl)pyrimidin-4-yl)amino)benzamide] | < 200 nM
8 | O=C1CCc2cc(Nc3ncc(C(F)(F)F)c(Nc4ccc5c(c4)CCC5)n3)ccc2N1 [compound 129, 6-((4-((2,3-dihydro-1H-inden-5-yl)amino)-5-(trifluoromethyl)pyrimidin-2-yl)amino)-3,4-dihydroquinolin-2(1H)-one] | < 200 nM
9 | CC(=O)Nc1ccc(Nc2nc(Nc3ccc4c(c3)CCC(=O)N4)ncc2C(F)(F)F)cc1 [compound 132, N-(4-((2-((2-oxo-1,2,3,4-tetrahydroquinolin-6-yl)amino)-5-(trifluoromethyl)pyrimidin-4-yl)amino)phenyl)acetamide] | < 200 nM
10 | COc1cccc(Nc2nc(Nc3ccc4c(c3)OCCO4)ncc2C(F)(F)F)c1 [compound 133, N^2-(2,3-dihydrobenzo[b][1,4]dioxin-6-yl)-N^4-(3-methoxyphenyl)-5-(trifluoromethyl)pyrimidine-2,4-diamine] | < 200 nM
11 | O=C1CCc2cc(Nc3ncc(Cl)c(Nc4ccc5c(c4)CCC(=O)N5)n3)ccc2N1 [compound 134, 6,6′-((5-chloropyrimidine-2,4-diyl)bis(azanediyl))bis(3,4-dihydroquinolin-2(1H)-one)] | < 200 nM
12 | COc1cnc(Nc2ccc3c(c2)CCC(=O)N3)nc1Nc1ccc2c(c1)CCC(=O)N2 [compound 135, 6,6′-((5-methoxypyrimidine-2,4-diyl)bis(azanediyl))bis(3,4-dihydroquinolin-2(1H)-one)] | > 2000 nM
13 | COc1cccc(Nc2nc(Nc3ccc4c(c3)CCC(=O)N4)ncc2Br)c1 [compound 142, 6-((5-bromo-4-((3-methoxyphenyl)amino)pyrimidin-2-yl)amino)-3,4-dihydroquinolin-2(1H)-one] | < 200 nM
14 | CS(=O)(=O)c1cccc(CNc2nc(Nc3ccc4[nH]ccc4c3)ncc2Br)c1 [compound 153, 5-bromo-N^2-(1H-indol-5-yl)-N^4-(3-(methylsulfonyl)benzyl) pyrimidine-2,4-diamine] | > 2000 nM
15 | Brc1cnc(Nc2ccc3[nH]ccc3c2)nc1Nc1ccccn1 [compound 154, 5-bromo-N^2-(1H-indol-5-yl)-N^4-(pyridin-2-yl)pyrimidine-2,4-diamine] | < 200 nM
16 | O=C1CCc2cc(Nc3ncc(Br)c(Nc4ccccn4)n3)ccc2N1 [compound 155, 6-((5-bromo-4-(pyridin-2-ylamino)pyrimidin-2-yl)amino)-3,4-dihydroquinolin-2(1H)-one] | < 200 nM
17 | COc1ccc(Nc2nc(Nc3ccc4c(c3)CCC(=O)N4)ncc2Br)cn1 [compound 156, 6-((5-bromo-4-((6-methoxypyridin-3-yl)amino)pyrimidin-2-yl)amino)-3,4-dihydroquinolin-2(1H)-one] | < 200 nM
18 | O=C1CCc2cc(Nc3ncc(Br)c(NC4CC4)n3)ccc2N1 [compound 159, 6-((5-bromo-4-(cyclopropylamino)pyrimidin-2-yl)amino)-3,4-dihydroquinolin-2(1H)-one] | < 200 nM
19 | FC(F)(F)c1cnc(NC2CC2)nc1NC1CC1 [compound 169, N^2,N^4-dicyclopropyl-5-(trifluoromethyl)pyrimidine-2,4-diamine] | > 2000 nM
20 | CNC(=O)c1ccccc1Oc1nc(Nc2cc(OC)ccc2C)ncc1Br [compound 170, 2-((5-bromo-2-((5-methoxy-2-methylphenyl)amino)pyrimidin-4-yl)oxy)-N-methylbenzamide] | > 2000 nM
21 | COc1nc(Nc2cccc(C(F)(F)F)c2F)ncc1Br [compound 172, 5-bromo-N-(2-fluoro-3-(trifluoromethyl)phenyl)-4-methoxy pyrimidin-2-amine] | 200 to 2000 nM
22 | CCCCOc1nc(Nc2cc(OC)c(OC)c(OC)c2)ncc1Br [compound 173, 5-bromo-4-butoxy-N-(3,4,5-trimethoxyphenyl)pyrimidin-2-amine] | < 200 nM
23 | Brc1cnc(Nc2cnc3[nH]ccc3c2)nc1NC1CC1 [compound 174, 5-bromo-N4-cyclopropyl-N2-(1H-pyrrolo[2,3-b]pyridin-5-yl)pyrimidine-2,4-diamine] | < 200 nM
24 | O=C1CCc2cc(Nc3ncc(C(F)(F)F)c(OC4CCC4)n3)ccc2N1 [compound 175, 6-((4-cyclobutoxy-5-(trifluoromethyl)pyrimidin-2-yl)amino)-3,4-dihydroquinolin-2(1H)-one] | < 200 nM
25 | FC(F)(F)c1cnc(Nc2cnc3[nH]ccc3c2)nc1Nc1ccc2c(c1)OCO2 [compound 177, N4-(benzo[d][1,3]dioxol-5-yl)-N2-(1H-pyrrolo[2,3-b]pyridin-5-yl)-5-(trifluoromethyl)pyrimidine-2,4-diamine] | < 200 nM
26 | COCCNc1nc(Nc2cnc3[nH]ccc3c2)ncc1C(F)(F)F [compound 179, N4-(2-methoxyethyl)-N2-(1H-pyrrolo[2,3-b]pyridin-5-yl)-5-(trifluoromethyl)pyrimidine-2,4-diamine] | 200 to 2000 nM
27 | N2-(2-methoxy-5-methylphenyl)-N4-(3-(methylsulfonyl) benzyl)-5-(trifluoromethyl)pyrimidine-2,4-diamine [compound 50] | > 2000 nM

— patent publication US10266549B2, “ULK1 inhibitors and methods using same” (SALK INSTITUTE FOR BIOLOGICAL STUDIES, priority 2014, dated 2019)
